Experimental data taken from patent publication US20090111778A1, “2-Keto-Oxazoles as Modulators of Fatty Acid Amide Hydrolase” (priority 2005, published 2009).
Counter-ions that a name gives are not always drawn.

Assays:
rat FAAH = target: T1, rat FAAH (Rattus norvegicus, UniProt P97612); experiment: Assay Method 2: FAAH assay, hydrolysis of 3H-anandamide by homogenate of SK-N-MC cells transfected with rat FAAH; type: biochemical; conditions: T84 or transfected SK-N-MC cell homogenate, 3H-AEA tracer 80 nM, rt 1 h, pH 9
T1 construct: expressed in transfected cells
T1 sequence (P97612 1-579): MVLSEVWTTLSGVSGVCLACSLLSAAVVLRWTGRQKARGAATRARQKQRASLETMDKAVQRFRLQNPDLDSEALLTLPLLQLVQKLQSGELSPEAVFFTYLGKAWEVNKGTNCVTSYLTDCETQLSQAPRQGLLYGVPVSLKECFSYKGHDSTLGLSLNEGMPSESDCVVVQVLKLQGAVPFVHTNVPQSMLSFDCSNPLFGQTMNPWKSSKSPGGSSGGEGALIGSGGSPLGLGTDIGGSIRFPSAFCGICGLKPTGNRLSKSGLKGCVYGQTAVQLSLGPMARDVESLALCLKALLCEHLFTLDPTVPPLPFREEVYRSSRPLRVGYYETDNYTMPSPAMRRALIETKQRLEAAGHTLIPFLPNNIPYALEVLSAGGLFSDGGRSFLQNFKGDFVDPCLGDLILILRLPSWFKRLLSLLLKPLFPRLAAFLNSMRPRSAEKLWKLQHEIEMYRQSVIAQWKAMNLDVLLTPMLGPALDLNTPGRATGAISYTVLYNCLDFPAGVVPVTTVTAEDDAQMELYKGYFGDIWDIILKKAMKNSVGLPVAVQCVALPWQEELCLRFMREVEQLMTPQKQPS
Outline: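 Rat FAAH activity from homogenate of G418-selected, electroporated SK-N-MC clones was measured as release of radiolabelled ethanolamine from 3H-anandamide. After 1 h at rt, charcoal filtration retained substrate, and scintillation counting of the flow-through gave the read-out.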

human FAAH = target: T2, human FAAH (Homo sapiens, UniProt O00519); experiment: Assay Method 1: FAAH assay, hydrolysis of 3H-anandamide by homogenate of SK-N-MC cells transfected with human FAAH; type: biochemical; conditions: human FAAH; T84 or transfected SK-N-MC cell homogenate; 3H-AEA tracer 80 nM; rt 1 h; pH 9; read-out: Assay 1 IC50
T2 construct: expressed in transfected cells
T2 sequence (O00519 1-579): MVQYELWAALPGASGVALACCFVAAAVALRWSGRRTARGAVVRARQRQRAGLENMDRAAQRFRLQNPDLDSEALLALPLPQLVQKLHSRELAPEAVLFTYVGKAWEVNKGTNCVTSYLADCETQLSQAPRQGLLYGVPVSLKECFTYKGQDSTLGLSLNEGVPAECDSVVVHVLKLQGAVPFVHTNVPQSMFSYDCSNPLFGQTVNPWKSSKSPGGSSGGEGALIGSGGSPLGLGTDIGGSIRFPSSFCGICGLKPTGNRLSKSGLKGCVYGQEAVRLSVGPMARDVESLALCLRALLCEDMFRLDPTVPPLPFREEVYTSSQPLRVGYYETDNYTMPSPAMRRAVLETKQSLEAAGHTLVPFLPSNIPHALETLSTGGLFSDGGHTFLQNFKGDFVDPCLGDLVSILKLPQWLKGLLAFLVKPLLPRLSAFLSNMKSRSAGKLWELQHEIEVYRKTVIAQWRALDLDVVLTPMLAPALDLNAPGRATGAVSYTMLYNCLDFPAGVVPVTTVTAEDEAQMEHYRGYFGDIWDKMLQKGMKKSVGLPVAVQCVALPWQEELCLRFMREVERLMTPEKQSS
Outline: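 Homogenate of SK-N-MC cells stably expressing human FAAH (G418-selected clones) incubated with compound and 80 nM [1-3H-ethanolamine]anandamide for 1 h at rt. Released 3H-ethanolamine separated from substrate by activated-charcoal filtration, then counted by scintillation.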

SMILES | IC50 (rat FAAH) | IC50 (human FAAH)
O=C(CCCC1CCN(C(=O)CCC2CCCC2)CC1)c1ncco1 [Example 32, 4-[1-(3-Cyclopentyl-propionyl)-piperidin-4-yl]-1-oxazol-2-yl-butan-1-one] | 112 nM | 28 nM
O=C(CCCC1CCN(Cc2cccc(Cl)c2)CC1)c1ncco1 [Example 10, 4-[1-(3-Chloro-benzyl)-piperidin-4-yl]-1-oxazol-2-yl-butan-1-one] | 80 nM | 60 nM
O=C(CCCC1CCN(C(=O)CC2CCCCC2)CC1)c1ncco1 [Example 49, 4-[1-(2-Cyclohexyl-acetyl)-piperidin-4-yl]-1-oxazol-2-yl-butan-1-one] | 350 nM | 100 nM
Cc1ccc(S(=O)(=O)N2CCC(CCCC(=O)c3ncc(-c4cccc(C(=O)O)n4)o3)CC2)cc1 [Example 151, 6-(2-{4-[1-(Toluene-4-sulfonyl)-piperidin-4-yl]-butyryl}-oxazol-5-yl)-pyridine-2-carboxylic acid trifluoroacetic acid salt] | 25 nM | 21 nM
O=C(CCCC1CCN(Cc2ccccc2Br)CC1)c1ncco1 [Example 85, 4-[1-(2-Bromo-benzyl)-piperidin-4-yl]-1-oxazol-2-yl-butan-1-one] | 240 nM | 315 nM
CC(C)(C)OC(=O)N1CCC(CCCC(=O)c2ncc(C(=O)O)o2)CC1 [Example 130, 4-[4-(5-Carboxy-oxazol-2-yl)-4-oxo-butyl]-piperidine-1-carboxylic acid tert-butyl ester] | 19 nM | 30 nM
O=C(CCCC1CCN(C(=O)CC2CCCC2)CC1)c1ncco1 [Example 48, 4-[1-(2-Cyclopentyl-acetyl)-piperidin-4-yl]-1-oxazol-2-yl-butan-1-one] | 216 nM | 100 nM
CC(c1ccccc1)N1CCC(CCCC(=O)c2ncco2)CC1 (stereo not shown) [Example 142, 1-Oxazol-2-yl-4-[1-(1-phenyl-ethyl)-piperidin-4-yl]-butan-1-one] | 3000 nM | 190 nM
COC(=O)c1cccc(-c2cnc(C(=O)CCCC3CCN(Cc4ccc(C(C)C)cc4)CC3)o2)n1 [Example 147, 6-(2-[4-{1-(4-Isopropyl-benzyl)-piperidin-4-yl]-butyryl}-oxazol-5-yl)-pyridine-2-carboxylic acid methyl ester] | 8 nM | 18 nM
CC(C)(C)OC(=O)N1CCC(CCCC(=O)c2ncc(-c3ccccn3)o2)CC1 [Example 119, 4-[4-Oxo-4-(5-pyridin-2-yl-oxazol-2-yl)-butyl]-piperidine-1-carboxylic acid tert-butyl ester] | 3 nM | 0.8 nM
O=C(O)c1cnc(C(=O)CCCC2CCN(Cc3cccc(Oc4ccccc4)c3)CC2)o1 [Example 145, 2-{4-[1-(3-Phenoxy-benzyl)-piperidin-4-yl]-butyryl}-oxazole-5-carboxylic acid trifluoroacetic acid salt] | 3 nM | 6 nM
O=C(O)c1cccc(-c2cnc(C(=O)CCCC3CCN(Cc4cccc(OC5CCCCC5)c4)CC3)o2)n1 [Example 150, 6-(2-{4-[1-(3-Cyclohexyloxy-benzyl)-piperidin-4-yl]-butyryl}-oxazol-5-yl)-pyridine-2-carboxylic acid trifluoroacetic acid salt] | 7 nM | 16 nM

Now from value to compound:

IC50 (rat FAAH) | IC50 (human FAAH) | SMILES
935 nM | 354 nM | O=C(CCCC1CCN(Cc2ccco2)CC1)c1ncco1 [Example 118, 4-(1-Furan-2-ylmethyl-piperidin-4-yl)-1-oxazol-2-yl-butan-1-one]
48 nM | 4 nM | COc1cccc(-c2ccc(CN3CCC(CCCC(=O)c4ncco4)CC3)cn2)c1 [Example 104, 4-{1-[6-(3-Methoxy-phenyl)-pyridin-3-ylmethyl]-piperidin-4-yl}-1-oxazol-2-yl-butan-1-one]
141 nM | 9 nM | O=C(CCCC1CCN(Cc2ccc(-c3cccs3)nc2)CC1)c1ncco1 [Example 110, 1-Oxazol-2-yl-4-[1-(6-thiophen-2-yl-pyridin-3-ylmethyl)-piperidin-4-yl]-butan-1-one]
950 nM | 52 nM | CC(C)c1ccc(CN2CCC(CCCC(=O)c3ncco3)CC2)cn1 [Example 132, 4-[1-(6-Isopropyl-pyridin-3-ylmethyl)-piperidin-4-yl]-1-oxazol-2-yl-butan-1-one]
110 nM | 14 nM | O=C(CCCC1CCN(S(=O)(=O)c2ccc(Cl)c(Cl)c2)CC1)c1ncco1 [Example 62, 4-[1-(3,4-Dichloro-benzenesulfonyl)-piperidin-4-yl]-1-oxazol-2-yl-butan-1-one]
38 nM | 19 nM | O=C(CCCC1CCN(C(=O)COc2ccc(Cl)cc2)CC1)c1ncco1 [Example 35, 4-{1-[2-(4-Chloro-phenoxy)-acetyl]-piperidin-4-yl}-1-oxazol-2-yl-butan-1-one]
57 nM | 53 nM | O=C(CCCC1CCN(Cc2ccc(Oc3ccccc3)nc2)CC1)c1ncco1 [Example 105, 1-Oxazol-2-yl-4-[1-(6-phenoxy-pyridin-3-ylmethyl)-piperidin-4-yl]-butan-1-one]
550 nM | 359 nM | O=C(CCCC1CCN(Cc2ccncc2)CC1)c1ncco1 [Example 6, 1-Oxazol-2-yl-4-(1-pyridin-4-ylmethyl-piperidin-4-yl)-butan-1-one]
132 nM | 125 nM | Cc1ccc(Oc2ccc(CN3CCC(CCCC(=O)c4ncco4)CC3)cn2)cc1 [Example 96, 1-Oxazol-2-yl-4-[1-(6-p-tolyloxy-pyridin-3-ylmethyl)-piperidin-4-yl]-butan-1-one]
180 nM | 50 nM | O=C(CCCC1CCN(Cc2ccc(F)c(Cl)c2)CC1)c1ncco1 [Example 13, 4-[1-(3-Chloro-4-fluoro-benzyl)-piperidin-4-yl]-1-oxazol-2-yl-butan-1-one]
528 nM | 55 nM | O=C(CCCC1CCN(Cc2ccc(-c3ccco3)nc2)CC1)c1ncco1 [Example 109, 4-[1-(6-Furan-2-yl-pyridin-3-ylmethyl)-piperidin-4-yl]-1-oxazol-2-yl-butan-1-one]
86 nM | 29 nM | O=C(CCCC1CCN(Cc2cnc3ccccc3c2)CC1)c1ncco1 [Example 21, 1-Oxazol-2-yl-4-(1-quinolin-3-ylmethyl-piperidin-4-yl)-butan-1-one]
3000 nM | 325 nM | CN(C)c1ccc(CN2CCC(CCCC(=O)c3ncco3)CC2)cc1 [Example 88, 4-[1-(4-Dimethylamino-benzyl)-piperidin-4-yl]-1-oxazol-2-yl-butan-1-one]
800 nM | 600 nM | O=C(CCCC1CCN(S(=O)(=O)Cc2ccccc2)CC1)c1ncco1 [Example 53, 1-Oxazol-2-yl-4-(1-phenylmethanesulfonyl-piperidin-4-yl)-butan-1-one]
